Patent publication US7282342B2, “Methods for detecting weakly immunogenic analytes” (Neuren Pharmaceuticals Ltd., priority 2001, dated 2007)
Residues, ends and D or L forms follow the SMILES beside them.

tested on: CK5 antibody; assay: standard double antibody radioimmunoassay, displacement of I125-labeled YGPE; type: binding, rabbit; conditions: CK5 diluted 1:600; I125-labeled YGPE tracer
Protocol: The CK5 antibody was characterized using a standard double antibody radioimmunoassay technique. Tubes containing either 100 μL 0.02 M phosphate buffered saline assay buffer or peptide (GPE, YGPE (SEQ ID NO:4), KYFGGPE (SEQ ID NO:5), or IGF-1) dissolved in assay buffer at various concentrations were preincubated with CK5 antibody (diluted at 1:600) for 24 h at 4° C. I^125-labeled YGPE (10,000 cpm) was then added to the tubes. After a further 48 h incubation at 4° C., the bound and free GPE were separated by adding donkey anti-rabbit serum (1:100). The tubes were incubated with this second antibody overnight at 4° C. before centrifugation (3,200 rpm for 30 min), after which the supernatant was aspirated, and the precipitate counted in a gamma counter. One antibody, CK5, was identified. […] Unlabeled GPE was able to displace I^125-labeled YGPE with an ED50 of approximately 200 ng/tube.

cross-reactivity with CK5 antibody	Molecule
does not cross-react significantly	IGF-1: insulin-like growth factor-1, the GPE parent molecule

tested on: CK5 antibody; assay: modified double antibody radioimmunoassay, displacement of I125-labeled Bolton and Hunter derivatized GPE; type: binding, rabbit; conditions: test substances Bolton and Hunter derivatized; CK5 at 1:18,000

cross-reactivity with CK5 antibody	Molecule
does not cross-react significantly	NCC(=O)O [glycine]
does not cross-react significantly	O=C(O)CC[C@H](NC(=O)[C@@H]1CCCN1)C(=O)O [PE, L-prolyl-L-glutamic acid] (H-Pro-Glu-OH)
does not cross-react significantly	NCC(=O)N1CCC[C@H]1C(=O)O [GP, glycyl-L-proline] (H-Gly-Pro-OH)

More lines, now with the values behind:

Molecule	cross-reactivity with CK5 antibody
O=C(O)[C@@H]1CCCN1 [proline]	does not cross-react significantly
IGF-1: insulin-like growth factor-1, the GPE parent molecule	does not cross-react significantly
N[C@@H](CCC(=O)O)C(=O)O [glutamic acid]	does not cross-react significantly
NC(N)=O [urea]	does not cross-react significantly
